Test system: VEGF-induced human umbilical vein endothelial cells (HUVEC) proliferation
Assay: VEGF-induced human umbilical vein endothelial cells (HUVEC) proliferation (SRB)
Format: cell-based
Conditions: for cell activity compared with positive control compound ABT869: VEGF-induced HUVEC proliferation
Method: 5000-8000 primary HUVEC cells before 5-15 doublings were seeded to each well of 96-well plate and each well contained 90 μl. The cells were cultured overnight and then starved with 90 μl/well serum-free basal culture medium for 24 h. Then 10 μl different concentration of compound was added to each well. Five concentrations were set and each concentration had 3 wells. After 2 h, 100 ng/mL of VEGF growth-stimulating factor was added. After 48 h, the medium was discarded, the cells were fixed with pre-cooled 10% TCA at 4° C. for 1 h, then washed with distilled water five times and dried in air. Then 100 μl of 4 mg/ml of sulforodamine B (SRB) solution prepared from 1% acetic acid was added to each well to dye 15 minutes at room temperature. The staining solution was discarded and each well was washed with 1% acetic acid five times and then dried in air. Finally, each well was added with 150 μl Tris-HCl solution (10 mM Tris, pH 10.0) and absorbance OD values at 560 nm were measured by microplate reader. Inhibition rate of the compound on HUVEC cell proliferation was measured to reflect VEGF-mediated proliferation inhibition effect of compound.
Inhibition rate of the compound was obtained by the following formula: […]
IC50 values were calculated by inhibition curves with four parameters fitting.

Structure (SMILES)	cell activity compared with positive control compound ABT869	IC50 (Homo sapiens, primary HUVEC, 100 ng/mL VEGF, 48 h, SRB, read-out: Half inhibitory concentration for VEGF-induced HUVEC proliferation, IC50) [nM]
Nc1n[nH]c2cccc(-c3ccc4c(C(=O)Nc5cc(F)cc(F)c5)cccc4c3)c12 [Compound I-14, 6-(3-amino-1H-indazol-4-yl)-N-(3,5-difluorophenyl)-1-naphthalenecarboxamide]	stronger than that of positive control compound ABT869	
Cc1cc(NC(=O)c2cccc3cc(-c4cccc5[nH]nc(N)c45)ccc23)ccc1F [Compound I-21, 6-(3-amino-1H-indazol-4-yl)-N-(4-fluoro-3-methylphenyl)-1-naphthalenecarboxamide]	stronger than that of positive control compound ABT869	
Cc1ccc(NC(=O)c2cccc3cc(-c4cccc5[nH]nc(N)c45)ccc23)cc1 [Compound I-8, 6-(3-amino-1H-indazol-4-yl)-N-(p-methylphenyl)-1-naphthalenecarboxamide]	stronger than that of positive control compound ABT869	
CCc1cccc(NC(=O)c2cccc3cc(-c4cccc5[nH]nc(N)c45)ccc23)c1 [Compound I-9, 6-(3-amino-1H-indazol-4-yl)-N-(3-ethylphenyl)-1-naphthalenecarboxamide]	stronger than that of positive control compound ABT869	
Cc1ccc(F)c(NC(=O)Nc2ccc(-c3cccc4[nH]nc(N)c34)cc2)c1 [ABT869, reference compound]		2.32

Reference: US9914707B2, “Naphthylamide compound, preparation method and use thereof” (SHANGHAI INSTITUTE OF MATERIA MEDICA, CHINESE ACADEMY OF …, priority 2014, dated 2018)
